Consider 21 compounds from ChEMBL document CHEMBL5143606, “Selective Wee1 degradation by PROTAC degraders recruiting VHL and CRBN E3 ubiquitin ligases” (Bioorg Med Chem Lett, 2022).

SMILES strings stand for the structures. Active and inactive are the calls of the source. The calls are words filed in the database; no cut-off is given here.

Broadly, the IC50 is the concentration at which inhibition is half-maximal.

For test [1], the target named is T1, von Hippel-Lindau disease tumor suppressor/Wee1-like protein kinase (Homo sapiens) (UniProt P30291+P40337). Description: PROTAC activity at VHL/Wee1 in human HeLa S3 cells assessed as induction of Wee1 degradation by measuring reduction in phosphorylation of CDK1 at Tyr15 residue at higher concentration measured after 4 hrs by Western blot analysis. The test is classed as cell-based. For orientation: In western blotting, separated proteins are transferred to a membrane and probed.

The target of test [2] is T1, von Hippel-Lindau disease tumor suppressor/Wee1-like protein kinase (Homo sapiens). Description: PROTAC activity at VHL/Wee1 in human HeLa S3 cells assessed as induction of Wee1 degradation at 1 uM measured after 24 hrs by Western blot analysis relative to control. The test is classed as cell-based.
The target is the same in test [3]. Description: PROTAC activity at VHL/Wee1 in human HeLa S3 cells assessed as induction of Wee1 degradation by measuring reduction in phosphorylation of CDK1 at Tyr15 residue at 1 uM measured after 24 hrs by Western blot analysis relative to control. The test is classed as cell-based. Also noted: scale not given: the % may be the effect or the level left.
Test [4] addresses T2, Protein cereblon/Wee1-like protein kinase (Homo sapiens) (UniProt P30291+Q96SW2). Description: PROTAC activity at CRBN/Wee1 in human HeLa S3 cells assessed as induction of Wee1 degradation by measuring reduction in phosphorylation of CDK1 at Tyr15 residue at 1 uM measured after 24 hrs by Western blot analysis relative to control. The format is cell-based. Also noted: scale not given: the % may be the effect or the level left.

In test [5] the target is T2, Protein cereblon/Wee1-like protein kinase (Homo sapiens). Description: PROTAC activity at CRBN/Wee1 in human HeLa S3 cells assessed as induction of Wee1 degradation at 1 uM measured after 24 hrs by Western blot analysis relative to control. The test is classed as cell-based.
The target is the same in test [6]. Description: PROTAC activity at CRBN/Wee1 in human HeLa S3 cells assessed as induction of Wee1 degradation by measuring reduction in phosphorylation of CDK1 at Tyr15 residue at 100 to 10000 nM measured after 4 hrs by Western blot analysis. The test is classed as cell-based. To be noted: dose 100-10000 nM.
The target is the same in test [7]. Description: PROTAC activity at CRBN/Wee1 in human HeLa S3 cells assessed as induction of Wee1 degradation at 30 to 10000 nM measured after 4 hrs by Western blot analysis. The format is cell-based. To be noted: dose 30-10000 nM.
For test [8] the target is unchanged. Description: PROTAC activity at CRBN/Wee1 in human HeLa S3 cells assessed as induction of Wee1 degradation at 1 uM measured after 4 hrs by Western blot analysis. The format is cell-based.
The test system of a further test is PC-3. Description: Antiproliferative activity against human PC-3 cells assessed as inhibition of cell growth measured after 72 hrs by MTS assay. To be noted: PC-3, 72 h. The format is functional, cell-based.
Test [9] deals with T2, Protein cereblon/Wee1-like protein kinase (Homo sapiens). Description: PROTAC activity at CRBN/Wee1 in human HeLa S3 cells assessed as induction of Wee1 degradation by measuring reduction in phosphorylation of CDK1 at Tyr15 at above 1 uM measured after 24 to 48 hrs by Western blot analysis. To be noted: time 24-48 hrs. The format is cell-based.
The test system of a further test is LNCaP. Description: Antiproliferative activity against human LNCaP cells assessed as inhibition of cell growth measured after 72 hrs by MTS assay. The format is functional, cell-based. For orientation: Formazan colour is commonly taken as a measure of viable cells.
The next test concerns MCF7. Description: Antiproliferative activity against human MCF7 cells assessed as inhibition of cell growth measured after 72 hrs by MTS assay. The test is classed as functional, cell-based. To be noted: MCF7, 72 h.
A further test concerns BT-549. Description: Antiproliferative activity against human BT-549 cells assessed as inhibition of cell growth measured after 72 hrs by MTS assay. To be noted: BT-549, 72 h. The format is functional, cell-based.
Test [10] concerns the target T1, von Hippel-Lindau disease tumor suppressor/Wee1-like protein kinase (Homo sapiens). Description: PROTAC activity at VHL/Wee1 in human HeLa S3 cells assessed as induction of Wee1 degradation at 1 uM measured after 24 to 48 hrs by Western blot analysis. The test is classed as cell-based. To be noted: time 24-48 hrs.
Test [11] shares this target. Description: PROTAC activity at VHL/Wee1 in human HeLa S3 cells assessed as induction of Wee1 degradation by measuring reduction in CDK1 phosphorylation at Tyr15 residue at above 1 uM measured after 24 to 48 hrs by Western blot analysis. To be noted: time 24-48 hrs. The test is classed as cell-based.
Test [12] shares this target. Description: PROTAC activity at VHL/Wee1 in human HeLa S3 cells assessed as induction of Wee1 degradation at 1 uM measured after 4 hrs by Western blot analysis. The format is cell-based.

Turning to `C=CCn1c(=O)c2cnc(Nc3ccc(N4CCN(CCCC(=O)NCCCCCC(=O)N[C@H](C(=O)N5C[C@H](O)C[C@H]5C(=O)NCc5ccc(-c6scnc6C)cc5)C(C)(C)C)CC4)cc3)nc2n1-c1cccc(C(C)(C)O)n1`, the result in test [1] was Active. For the same compound, the Activity in test [2] was 71%; in test [3] it was 64%.

Consider `C=CCn1c(=O)c2cnc(Nc3ccc(N4CCN(CCCC(=O)NCCOCCOCCOCCOCCNc5cccc6c5C(=O)N(C5CCC(=O)NC5=O)C6=O)CC4)cc3)nc2n1-c1cccc(C(C)(C)O)n1` (configuration not stated), for which the Activity amounted to 65% in test [4] and 45% in test [5].

Turning to `C=CCn1c(=O)c2cnc(Nc3ccc(N4CCN(CCCC(=O)NCCCCCCCC(=O)N[C@H](C(=O)N5C[C@H](O)C[C@H]5C(=O)NCc5ccc(-c6scnc6C)cc5)C(C)(C)C)CC4)cc3)nc2n1-c1cccc(C(C)(C)O)n1`, in test [1], the result was Active. The Activity in test [2] is 68%; in test [3], 53%.

`C=CCn1c(=O)c2cnc(Nc3ccc(N4CCN(CCCC(=O)NCCCCCCNc5cccc6c5C(=O)N(C5CCC(=O)NC5=O)C6=O)CC4)cc3)nc2n1-c1cccc(C(C)(C)O)n1` (configuration not stated): the Activity in test [4] was found to be 39%; in test [5], 23%. Moreover, the result in [6] and in [7] was Active.

Regarding `C=CCn1c(=O)c2cnc(Nc3ccc(N4CCN(CCCC(=O)NCCOCCOCC(=O)NCCNc5cccc6c5C(=O)N(C5CCC(=O)NC5=O)C6=O)CC4)cc3)nc2n1-c1cccc(C(C)(C)O)n1` (configuration not stated), the Activity in test [4] was determined as 80%; in test [5], 81%. Further, in test [8], the outcome was Active.

For the compound `C=CCn1c(=O)c2cnc(Nc3ccc(N4CCN(CCCC(=O)NCCOCCNc5cccc6c5C(=O)N(C5CCC(=O)NC5=O)C6=O)CC4)cc3)nc2n1-c1cccc(C(C)(C)O)n1` (configuration not stated), the Activity worked out at 41% in test [4] and 38% in test [5]. The result in test [6] and in test [7] was Active.

For the compound `C=CCn1c(=O)c2cnc(Nc3ccc(N4CCN(CCCC(=O)NCCCCCCCC(=O)NCCNc5cccc6c5C(=O)N(C5CCC(=O)NC5=O)C6=O)CC4)cc3)nc2n1-c1cccc(C(C)(C)O)n1` (configuration not stated), the Activity in test [4] was 88%; in [5], 83%.

Consider `C=CCn1c(=O)c2cnc(Nc3ccc(N4CCN(CCCC(=O)NCCOCCOCCOCCNc5cccc6c5C(=O)N(C5CCC(=O)NC5=O)C6=O)CC4)cc3)nc2n1-c1cccc(C(C)(C)O)n1` (configuration not stated), for which the Activity in test [4] is 66%; in test [5] it was 59%.

Take `C=CCn1c(=O)c2cnc(Nc3ccc(N4CCN(CCCC(=O)NCCOCCOCCNc5cccc6c5C(=O)N(C5CCC(=O)N(C)C5=O)C6=O)CC4)cc3)nc2n1-c1cccc(C(C)(C)O)n1` (configuration not stated): the IC50 in the test on PC-3 is over 20 µM; in the test on LNCaP, 11 µM; with MCF7, 11 µM; in the test with BT-549 it was 9 µM. For the same compound, the result in test [9] was Active.

Turning to `C=CCn1c(=O)c2cnc(Nc3ccc(N4CCN(CCCC(=O)NCCCCCCCCCCC(=O)NCCNc5cccc6c5C(=O)N(C5CCC(=O)NC5=O)C6=O)CC4)cc3)nc2n1-c1cccc(C(C)(C)O)n1` (configuration not stated), the Activity in test [4] and in test [5] was 41% in each case.

With `C=CCn1c(=O)c2cnc(Nc3ccc(N4CCN(CCCC(=O)NCCCCCCCCCCC(=O)N[C@H](C(=O)N5C[C@H](O)C[C@H]5C(=O)NCc5ccc(-c6scnc6C)cc5)C(C)(C)C)CC4)cc3)nc2n1-c1cccc(C(C)(C)O)n1`, the outcome in [1] was Active. Also, the Activity in [2] was determined as 50%; in test [3], 47%.

`C=CCn1c(=O)c2cnc(Nc3ccc(N4CCN(CCCC(=O)NCCOCCOCCOCC(=O)NCCNc5cccc6c5C(=O)N(C5CCC(=O)NC5=O)C6=O)CC4)cc3)nc2n1-c1cccc(C(C)(C)O)n1` (configuration not stated): the Activity came out at 84% in test [4] and 96% in test [5].

Turning to `C=CCn1c(=O)c2cnc(Nc3ccc(N4CCN(CCCC(=O)NCCCC(=O)NCCNc5cccc6c5C(=O)N(C5CCC(=O)NC5=O)C6=O)CC4)cc3)nc2n1-c1cccc(C(C)(C)O)n1` (configuration not stated), the Activity was 60% in test [4] and 47% in [5].

On to `C=CCn1c(=O)c2cnc(Nc3ccc(N4CCN(CCCC(=O)NCCCCCC(=O)NCCNc5cccc6c5C(=O)N(C5CCC(=O)NC5=O)C6=O)CC4)cc3)nc2n1-c1cccc(C(C)(C)O)n1` (configuration not stated), for which the Activity in [4] was found to be 54%; in [5] it was 75%.

As for `C=CCn1c(=O)c2cnc(Nc3ccc(N4CCN(CCCC(=O)NCCNc5cccc6c5C(=O)N(C5CCC(=O)NC5=O)C6=O)CC4)cc3)nc2n1-c1cccc(C(C)(C)O)n1` (configuration not stated), the values for the Activity in test [4] and in test [5] were 38% and 21%, respectively. In addition, the outcome in [7] was Active.

For `C=CCn1c(=O)c2cnc(Nc3ccc(N4CCN(CCCC(=O)NCCOCCOCCOCC(=O)N[C@H](C(=O)N5C[C@H](O)C[C@H]5C(=O)NCc5ccc(-c6scnc6C)cc5)C(C)(C)C)CC4)cc3)nc2n1-c1cccc(C(C)(C)O)n1`, the Activity in test [2] stood at 94%; in [3], 72%.

As to `C=CCn1c(=O)c2cnc(Nc3ccc(N4CCN(CCCC(=O)N[C@H](C(=O)N5C[C@@H](O)C[C@H]5C(=O)NCc5ccc(-c6scnc6C)cc5)C(C)(C)C)CC4)cc3)nc2n1-c1cccc(C(C)(C)O)n1`, the IC50 with PC-3 was 8.7 µM; in the test with LNCaP, 3.46 µM; with MCF7, 3.3 µM; with BT-549 it was 1.7 µM. Moreover, the result in test [10] and in test [11] was Active.

For the compound `C=CCn1c(=O)c2cnc(Nc3ccc(N4CCN(CCCC(=O)NCCOCCOCCOCCOCCC(=O)N[C@H](C(=O)N5C[C@H](O)C[C@H]5C(=O)NCc5ccc(-c6scnc6C)cc5)C(C)(C)C)CC4)cc3)nc2n1-c1cccc(C(C)(C)O)n1`, the outcome in [12] was Active. The figures for the Activity in test [2] and in test [3] were 108% and 80%, respectively.

As for `C=CCn1c(=O)c2cnc(Nc3ccc(N4CCN(CCCC(=O)NCCCC(=O)N[C@H](C(=O)N5C[C@H](O)C[C@H]5C(=O)NCc5ccc(-c6scnc6C)cc5)C(C)(C)C)CC4)cc3)nc2n1-c1cccc(C(C)(C)O)n1`, in test [1], the result was Active. Also, the Activity in [2] was 68%; in test [3] it was 55%.

`C=CCn1c(=O)c2cnc(Nc3ccc(N4CCN(C)CC4)cc3)nc2n1-c1cccc(C(C)(C)O)n1` [ADAVOSERTIB]: the IC50 in the test on PC-3 was found to be 8 µM; in the test with LNCaP, 0.5 µM; in the test on MCF7, 1.1 µM; with BT-549, 0.49 µM.

In the case of `C=CCn1c(=O)c2cnc(Nc3ccc(N4CCN(CCCC(=O)NCCOCCOCCOCCOCCOCCNc5cccc6c5C(=O)N(C5CCC(=O)NC5=O)C6=O)CC4)cc3)nc2n1-c1cccc(C(C)(C)O)n1` (configuration not stated), the Activity came to 78% in [4] and 51% in test [5].
